The source of these data is US20240150321A1, “PYRAZOLYLSULFONAMIDE COMPOUNDS AND THEIR USE IN THERAPY” (HOTSPOT THERAPEUTICS, INC., priority 2022, published 2024).

One assay has as its target Avi-tagged FL MALT-1 (Homo sapiens (Human), UniProt Q9UDY8). The experiment in a line: MALT-1 Fluorogenic Peptide Cleavage Assay (MALT1 inhibition assay). Type of assay: biochemical. As to conditions: Ac-LRSR-AMC peptide substrate, 30 min pre-incubation, 90 min reaction at room temperature. As for the experimental part: Inhibition of MALT1 activity by the presence of small molecules was evaluated using MALT-1 Fluorogenic Peptide Cleavage Assay. The assay utilizes a quenched AMC-labelled peptide that contains the MALT-1 recognition sequence and cleavage site (LRSR). MALT-1 mediated cleavage of the peptide relieves the quenching and leads to an increase in fluorescence at excitation (342 nm) and emission (441 nm).
The following reagents were obtained commercially and used to prepare standard reagent formulations as further described below: N-2-hydroxyethylpiperazine-N-2-ethane sulfonic acid (HEPES) (1 M, pH 7.5, stored at 4° C.), sodium citrate (stored at RT), tris(2-carboxyethyl) phosphine hydrochloride (T-CEP) (500 mM, stored at −20° C.), ethylenediaminetetraacetic acid (EDTA) (500 mM, stored at RT), dimethylsulfoxide (DMSO, stored at RT), 3-[(3-cholamido-propyl)dimethylammonio]-1-propane sulphate (CHAPS) (stored at RT), dimethylsulfoxide (DMSO), DMSO (Fisher Scientific, stored at RT), Avi-tagged FL MALT-1 (Pharmaron, stored at −70° C.), Ac-LRSR-AMC Peptide (SM Biochemicals, stored at −20° C.)., and ultrapure water (MILLLI-Q©).
The standard reagent formulations used in this assay were prepared and stored as follows. A 1.1 M solution of sodium citrate (161.3 g, 500 mL) was prepared and stored at room temperature. A 10% (w/v) CHAPS solution (2.0 g, 20 mL) was prepared and stored at 4° C. A 500 mM HEPES solution having pH of 6.89 was prepared from 200 mL of a 1 M HEPES solution having a pH of 7.5 using concentrated hydrochloric acid and brought to a final volume of 400 mL with MILLI-Q© H2O. The substrate, 10 mM Ac-LRSR-AMC Peptide, was prepared (10 mg, 1.370 mL DMSO) and stored at −20° C.
Compounds were plated to provide a 2% DMSO final concentration using a ProxiPlate-384 Plus F Black 384-shallow well microplate. The assay-ready plates were equilibrated to room temperature. A reaction buffer (30 mL total volume) was prepared by combining HEPES (pH 6.89, 25 mM, 1.5 mL), sodium citrate (660 mM, 18.0 mL), T-CEP (1 mM, 0.06 mL), EDTA ([…], 0.06 mL), CHAPS (0.05%, 0.15 mL), DMSO (2%, 0.6 mL), and MILLI-Q© H2O (10.23 mL; 9.63 mL when backfilled to 2% DMSO) followed by thorough mixing. DMSO was added only when compound plates had not been DMSO-backfilled to 2%.
MALT-1 was thawed and kept on ice. Peptide substrate was thawed on the bench under ambient conditions. A MALT-1 enzyme working stock was prepared from Avi-tagged FL MALT-1 (40 nM in a prepared reagent volume of 16.5 μL) and the reaction buffer (13.0 mL). MALT1 working stock (5 μL) was added to each well of the microplate. MALT-1 was pre-incubated with compounds for 30 minutes at room temperature.
Two substrate working stocks (Km and 10×Km) were prepared. The 1×Km substrate was prepared from Ac-LRSR-AMC Peptide (50 μM in a prepared reagent volume of 35.0 μL) and the reaction buffer (6.965 mL). The 10×Km substrate was prepared from Ac-LRSR-AMC Peptide (280 μM in a prepared reagent volume of 196.0 μL) and the reaction buffer (6.804 mL). The reaction was initiated by the addition of substrate working stock (5 μL, 50 μM) to Km plates and the addition of substrate working stock (5 μL 280 μM) to 10×Km plates. The plates were covered and incubated on the bench at room temperature for 90 minutes.
Fluorescence intensity was determined using a CLARIOstar microplate reader (BMG LABTECH) using the optimised AMC mode. Before taking readings, a 70% gain was applied on the neutral control well. Compound data were normalised to % Inhibition and used to plot sigmoidal concentration response curves to yield various parameters including IC50.

Assay [1] has as its system NF-kB reporter in Jurkat cells. The experiment in a line: NF-kB reporter assay in Jurkat cells stimulated with aCD3/aCD28/PMA. As to conditions: Homo sapiens, read-out: NF-kB Reporter Assay IC50. Type of assay: cell-based. As for the experimental part:
Jurkat cells were maintained in complete RPMI 1640 media supplemented with 10% FBS. Prior to the assay, 120 nL of the serial diluted compound was added in each well of 384-well flat bottom white plate (Corning #3570) by using liquid handler Echo550. Jurkat cells were harvested by centrifugation at 120 g for 10 min and resuspended in fresh RPMI 1640 media without serum. […] (25,000 cells) were seeded in each well of 384-well plate containing compound. After 1 hr incubation at 37° C. in a 5% CO2 incubator, […] of diluted aCD3/aCD28/PMA (final concentration at […] and […], respectively) in RPMI 1640 without serum were added to each well. After incubation at 37° C. in 5% CO2 for 4 hr, […] of One-Glo reagent (Promega #E6120) was added into each well. The plate was left at room temperature for 5 min and the signal was measured on EnVision (PerkinElmer).
Compounds in which an IC50 was not measured are designated as “N/A”.

Where [2] appears, read: Jurkat cells, 1 hr compound pre-incubation, aCD3/aCD28/PMA stimulation 4 hr, One-Glo readout.

Read-outs that look alike come from different tables or passages of the source. Where only a bound is given, the exact number is not on record here.

Chain of Avi-tagged FL MALT-1 (Q9UDY8 whole entry): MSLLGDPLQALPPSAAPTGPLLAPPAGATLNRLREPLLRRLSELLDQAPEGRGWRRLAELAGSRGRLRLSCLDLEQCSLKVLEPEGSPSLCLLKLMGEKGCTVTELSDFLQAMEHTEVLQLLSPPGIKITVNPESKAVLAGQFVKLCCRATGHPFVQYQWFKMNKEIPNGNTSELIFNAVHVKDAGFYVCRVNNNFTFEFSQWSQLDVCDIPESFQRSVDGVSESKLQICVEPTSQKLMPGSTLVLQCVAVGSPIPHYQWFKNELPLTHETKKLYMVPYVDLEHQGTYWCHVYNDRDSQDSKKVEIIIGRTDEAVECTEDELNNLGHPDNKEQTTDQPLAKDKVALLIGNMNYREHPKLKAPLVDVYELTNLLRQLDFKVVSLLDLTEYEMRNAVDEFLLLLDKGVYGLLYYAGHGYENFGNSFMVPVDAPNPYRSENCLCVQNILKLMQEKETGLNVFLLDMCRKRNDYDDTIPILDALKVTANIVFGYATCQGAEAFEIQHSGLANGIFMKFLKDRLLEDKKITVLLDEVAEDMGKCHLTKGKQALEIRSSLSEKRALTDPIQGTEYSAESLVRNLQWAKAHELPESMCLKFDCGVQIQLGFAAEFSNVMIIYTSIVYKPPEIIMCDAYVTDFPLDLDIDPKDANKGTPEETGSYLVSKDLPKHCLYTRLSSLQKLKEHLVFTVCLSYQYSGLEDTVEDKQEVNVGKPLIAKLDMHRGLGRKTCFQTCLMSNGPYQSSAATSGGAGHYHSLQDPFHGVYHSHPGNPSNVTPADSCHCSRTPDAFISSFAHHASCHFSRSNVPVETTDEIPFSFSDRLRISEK

Consider `CN1CCC(n2cc(S(=O)(=O)Nc3cccc4cnn(C)c34)cn2)CC1` [Compound I-345], for which the IC50 is above 2.5 µM at Avi-tagged FL MALT-1 and 0.4 to 1 µM in assay [1] (setting [2]).

For the molecule `C[C@@H]1CN(c2ccnc(-n3cc(S(=O)(=O)Nc4cccc5cnn(C)c45)cn3)c2)C(=O)O1` [Compound I-320], the IC50 is above 2.5 µM at Avi-tagged FL MALT-1 and below 0.4 µM in assay [1] (setting [2]).

For the molecule `CCc1ccc2cnn(C)c2c1NS(=O)(=O)c1cnn(-c2ccnc(C(F)(F)F)c2)c1` [Compound I-2, N-(6-Ethyl-1-Methyl-1H-Indazol-7-yl)-1-(2-(Trifluoromethyl) Pyridin-4-yl)-1H-Pyrazole-4-Sulfonamide], the results for the IC50 (on Avi-tagged FL MALT-1; in assay [1] (setting [2])) were at most 0.4 µM and below 0.4 µM, respectively.

Consider `CCC(F)(F)c1ccnc(-n2cc(S(=O)(=O)Nc3cccc4cnn(C)c34)cn2)c1` [Compound I-140, 1-(4-(1,1-difluoropropyl)pyridin-2-yl)-N-(1-methyl-1H-indazol-7-yl)-1H-pyrazole-4-sulfonamide], for which the IC50 against Avi-tagged FL MALT-1 was above 2.5 µM; in assay [1] (Jurkat), below 0.4 µM.

Regarding `Cn1ncc2cccc(NS(=O)(=O)c3cnn(-c4cc(N5CC(C)(C)C5)ccn4)c3)c21` [Compound I-367], the results for the IC50 (at Avi-tagged FL MALT-1; in assay [1] (setting [2])) were above 2.5 µM and below 0.4 µM, respectively.

With `C[C@H]1CCN(c2ccnc(-n3cc(S(=O)(=O)Nc4cccc5cnn(C)c45)cn3)c2)C1` [Compound I-400, N-(1-methylindazol-7-yl)-1-{4-[(3S)-3-methylpyrrolidin-1-yl]pyridin-2-yl} pyrazole-4-sulfonamide], the results for the IC50 (at Avi-tagged FL MALT-1; in assay [1] (setting [2])) were above 2.5 µM and below 0.4 µM, respectively.

On to `Cn1ncc2cccc(NS(=O)(=O)c3cnn(-c4cc(C5(O)CC(F)(F)C5)ccn4)c3)c21` [Compound I-359], for which the IC50 against Avi-tagged FL MALT-1 is above 2.5 µM; in assay [1] (setting [2]) it was below 0.4 µM.

Consider `Cc1cnc(-n2cc(S(=O)(=O)Nc3cccc4cnn(C)c34)cn2)cc1C(F)(F)F` [Compound I-117, N-(1-methyl-1H-indazol-7-yl)-1-(5-methyl-4-(trifluoromethyl)pyridin-2-yl)-1H-pyrazole-4-sulfonamide], for which the IC50 on Avi-tagged FL MALT-1 is 1 to 2.5 µM; in assay [1] (setting [2]) it was below 0.4 µM.

Consider `COC[C@@](C)(O)c1ccnc(-n2cc(S(=O)(=O)Nc3cccc4cnn(C)c34)cn2)c1` [Compound I-275], for which the concentration for half-maximal inhibition (IC50) against Avi-tagged FL MALT-1 is above 2.5 µM; in assay [1] (setting [2]), 1 to 2.5 µM.

As for `Cn1ncc2ccc(OC3CC3)c(NS(=O)(=O)c3cnn(-c4ccnc(C(F)(F)F)c4)c3)c21` [Compound I-55, N-(6-Cyclopropoxy-1-Methyl-1H-Indazol-7-yl)-1-(2-(Trifluoromethyl)Pyridin-4-yl)-1H-Pyrazole-4-Sulfonamide], the IC50 is at most 0.4 µM on Avi-tagged FL MALT-1 and 1 to 2.5 µM in assay [1] (setting [2]).

`Cn1ncc2cncc(NS(=O)(=O)c3cnn(-c4cc(C(C)(F)F)ccn4)c3)c21` [Compound I-120, 1-(4-(1,1-Difluoroethyl)Pyridin-2-yl)-N-(1-Methyl-1H-Pyrazolo[4,3-C]Pyridin-7-yl)-1H-Pyrazole-4-Sulfonamide]: the IC50 (against Avi-tagged FL MALT-1; in assay [1] (setting [2])) was above 2.5 µM throughout.

As for `CCC(OC)c1ccnc(-n2cc(S(=O)(=O)Nc3cccc4cnn(C)c34)cn2)c1` (centres unmarked) [Compound I-297, 1-{4-[1-methoxypropyl]pyridin-2-yl}-N-(1-methylindazol-7-yl)pyrazole-4-sulfonamide], the IC50 was above 2.5 µM on Avi-tagged FL MALT-1 and below 0.4 µM in assay [1] (setting [2]).

`COc1ccc2cnn(C)c2c1NS(=O)(=O)c1cnn(-c2cc(N3CCC3)ccn2)c1` [Compound I-373, 1-(4-(azetidin-1-yl)pyridin-2-yl)-N-(6-methoxy-1-methyl-1H-indazol-7-yl)-1H-pyrazole-4-sulfonamide]: the IC50 at Avi-tagged FL MALT-1 was at most 0.4 µM; in assay [1] (Jurkat) it was below 0.4 µM.

Take `Cc1n[nH]c2cccc(N(C)S(=O)(=O)c3cnn(-c4cc(C(F)(F)F)ccn4)c3)c12` [Compound I-65, N-Methyl-N-(3-Methyl-1H-Indazol-4-yl)-1-(4-(Trifluoromethyl)Pyridin-2-yl)-1H-Pyrazole-4-Sulfonamide]: the IC50 (on Avi-tagged FL MALT-1; in assay [1] (setting [2])) was 0.4 to 1 µM in each case.

For the molecule `COc1ncc2cnn(C)c2c1NS(=O)(=O)c1cnn(-c2cc(N3CC4CC(C4)C3)ccn2)c1` [Compound I-406], the IC50 against Avi-tagged FL MALT-1 is above 2.5 µM; in assay [1] (setting [2]) it was below 0.4 µM.

For the molecule `CCc1ccc2cnn(C)c2c1NS(=O)(=O)c1cnn(-c2cc(C3CC3)ccn2)c1` [Compound I-56, 1-(4-Cyclopropylpyridin-2-yl)-N-(6-Ethyl-1-Methyl-1H-Indazol-7-yl)-1H-Pyrazole-4-Sulfonamide], the concentration for half-maximal inhibition (IC50) against Avi-tagged FL MALT-1 is at most 0.4 µM; in assay [1] (setting [2]), below 0.4 µM.

For `COC1(c2ccnc(-n3cc(S(=O)(=O)Nc4cccc5cnn(C)c45)cn3)c2)CC(F)(F)C1` [Compound I-138, 1-(4-(3,3-difluoro-1-methoxycyclobutyl)pyridin-2-yl)-N-(1-methyl-1H-indazol-7-yl)-1H-pyrazole-4-sulfonamide], the IC50 against Avi-tagged FL MALT-1 is above 2.5 µM; in assay [1] (setting [2]), below 0.4 µM.

With `[2H]C([2H])([2H])n1ncc2ccc(OC)c(NS(=O)(=O)c3cnn(-c4cc(C5CC5)ccn4)c3)c21` [Compound I-97, 1-(4-Cyclopropylpyridin-2-yl)-N-(6-Methoxy-1-(Methyl-D3)-1H-Indazol-7-yl)-1H-Pyrazole-4-Sulfonamide], the IC50 was at most 0.4 µM at Avi-tagged FL MALT-1 and below 0.4 µM in assay [1] (setting [2]).

On to `Cn1ncc2cccc(NS(=O)(=O)c3cnn(-c4cnc5n4CCOC5)c3)c21` [Compound I-473, 1-(5,6-dihydro-8H-imidazo[2,1-c][1,4]oxazin-3-yl)-N-(1-methyl-1H-indazol-7-yl)-1H-pyrazole-4-sulfonamide], for which the IC50 (against Avi-tagged FL MALT-1; in assay [1] (setting [2])) was above 2.5 µM in each case.

Consider `COc1ccc2cnn(C)c2c1NS(=O)(=O)c1cnn(-c2cc(N3CC[C@@H](C)C3)ccn2)c1` [Compound I-403], for which the concentration for half-maximal inhibition (IC50) on Avi-tagged FL MALT-1 is above 2.5 µM; in assay [1] (setting [2]) it was below 0.4 µM.

Take `COc1ncc2cnn(C)c2c1NS(=O)(=O)c1cnn(-c2cc(C3(OC)COC3)ccn2)c1` [Compound I-125, N-{6-methoxy-1-methylpyrazolo [4,3-c]pyridin-7-yl}-1-[4-(3-methoxyoxetan-3-yl)pyridin-2-yl]pyrazole-4-sulfonamide]: the IC50 at Avi-tagged FL MALT-1 is at most 0.4 µM; in assay [1] (setting [2]) it was below 0.4 µM.

`COc1ccc2cnn(C)c2c1NS(=O)(=O)c1cnn(-c2cc(C3(OC)CC4(CC4)C3)ccn2)c1` [Compound I-485, N-(6-methoxy-1-methylindazol-7-yl)-1-(4-{5-methoxyspiro [2.3]hexan-5-yl}pyridin-2-yl) pyrazole-4-sulfonamide]: the IC50 was 0.4 to 1 µM against Avi-tagged FL MALT-1 and below 0.4 µM in assay [1] (setting [2]).

By IC50 is commonly meant the concentration that inhibits the measured activity by half.
